From ChEMBL document CHEMBL4888484, “Replenishing the malaria drug discovery pipeline: Screening and hit evaluation of the MMV Hit Generation Library 1 (HGL1) against asexual blood stage Plasmodium falciparum ,using a nano luciferase reporter read-out” (2022)

Experiments:
[1] = system: Plasmodium falciparum; assay: Hit confirmation in dose-response curve in NF54 nanoGlo assay, at 72h; format: functional, organism-based, Erythrocyte; design: timepoint 72 hour; conditions: Plasmodium falciparum, NF54, Erythrocyte, 72 h
[2] = system: Plasmodium falciparum; assay: Hit confirmation in dose-response curve in NF54 pLDH assay, at 72h; format: functional, organism-based; design: timepoint 72 hour; conditions: NF54, Erythrocyte
[3] = system: Plasmodium falciparum; assay: Hit confirmation in dose-response curve in Dd2 pLDH assay, at 72h; format: functional, organism-based; design: timepoint 72 hour; conditions: Dd2, Erythrocyte
[4] = system: Plasmodium falciparum; assay: Hit confirmation in dose-response curve in NF54 nanoGlo assay, at 12h; format: functional, organism-based, Erythrocyte; design: timepoint 12 hour; conditions: Plasmodium falciparum, NF54, Erythrocyte, 12 h
[5] = Hit confirmation in dose-response curve in HepG2 cytotoxicity assay, at 72h; format: toxicity, cell-based; design: timepoint 72 hour; conditions: human, HepG2 cells

| SMILES | IC50 [1] [µM] | IC50 [2] [µM] | IC50 [3] [µM] | IC50 [4] [µM] | IC50 at 72 h [5] [µM] |
| --- | --- | --- | --- | --- | --- |
| CN(Cc1ccc(-c2ccccc2)cc1)c1cc([C@H]2C[C@@H](N)C2)nc(N)n1 | 2.19 | 4.17 | 3.24 | 3.98 | > 10 |
| COc1cccc(CC(=O)N2CCc3nc(N4CCC(C)CC4)nc(Oc4ccccc4OC)c3C2)c1 | 3.63 | 10 | 4.9 | > 10 | > 10 |
| Cc1ccc2nc(-c3cc4ccccc4o3)cn2c1 | 2.04 | 3.02 | 2.69 | > 10 | > 10 |
| COc1cc([C@H](CC(=O)NC2CCN(Cc3ccccc3)CC2)N2Cc3ccccc3C2=O)cc(OC)c1OC | 2.4 | 2.75 | 3.72 | 5.75 | > 10 |
| COc1ccc(NC(=O)C2(N(Cc3ccccc3)C(=O)Cn3nnc4ccccc43)CCCCC2)cc1 | 4.47 | > 10 | > 10 | 1.7 | > 10 |
| Cc1c(F)cccc1NC(=O)N1CCN(C2=CC3=N[C@@H](C)CN3C=N2)CC1 | 3.63 | 2.69 | 4.07 | > 10 | > 10 |
| O=C(Nc1ccc(C2(c3ccc(NC(=O)c4ccc(F)cc4)cc3)c3ccccc3C(=O)c3ccccc32)cc1)c1ccc(F)cc1 | 2.04 | 5.89 | 8.13 | 5.01 | > 10 |
| Cc1ccc(-c2cc(C(=O)Nc3nnc(C(C)C)s3)no2)cc1F | 3.8 | > 10 | > 10 | 1.91 | > 10 |
| CCOC(=O)c1cc(F)cc(S(=O)(=O)Nc2ccnc3ncnn23)c1 | 5.89 | > 10 | > 10 | 1.35 | > 10 |
| CCn1cc(C#N)c(=O)c2cc(F)c(N3CCN(Cc4ccccc4)CC3)cc21 | > 10 | > 10 | > 10 | > 10 | > 10 |
| O=C(CN1C=CCC=C1c1nc(-c2ccc(Br)cc2)cs1)c1ccccc1 | 2.63 | 3.47 | 3.55 | 5.89 | > 10 |
| C=Cn1cc[n+](CC(=O)c2ccc(-c3ccccc3)cc2)c1 | 3.09 | 3.47 | 2.63 | > 10 | > 10 |
| CN(C)c1noc(CN2CCc3ccc(F)cc3C2)n1 | 5.01 | 7.24 | > 10 | > 10 | > 10 |
| COc1ccc(-c2cc(-c3ccccc3)nc(N3CCC(C)CC3)n2)cc1 | 9.55 | > 10 | > 10 | > 10 | > 10 |
| O=C(c1ccccc1F)N(Cc1nccn1Cc1c(F)cccc1Cl)C1CC1 | 2.75 | 6.92 | > 10 | 1.32 | > 10 |
| C=CCCC(CN1C[C@H]2CC=CC[C@H]2C1)Oc1ncc(F)cn1 (stereo not given in full) | 0.0178 | 0.0224 | > 10 | 7.41 | > 10 |

Continued by falling IC50 [1], values first:

| IC50 [1] [µM] | IC50 [2] [µM] | IC50 [3] [µM] | IC50 [4] [µM] | SMILES | IC50 at 72 h [5] [µM] |
| --- | --- | --- | --- | --- | --- |
| 2.04 | 6.92 | 4.47 | 3.31 | O=C(Nc1ccc(Cl)c(Cl)c1)Nc1ccc(Cl)cc1NC(=O)Nc1ccc(Cl)c(Cl)c1 | > 10 |
| 1.95 | 3.39 | 1.86 | > 10 | Cc1cc(N2CCC3(CCCN3Cc3cc(C#N)n(C)c3C)CC2)c2ccccc2n1 | > 10 |
| 1.95 | 5.62 | 3.09 | 5.13 | Oc1ccc(-c2nnc(-c3ccc(O)cc3)nn2)cc1 | > 10 |
| 1.86 | 2.82 | 1.66 | 5.62 | Cc1ccc(-c2cc(O)cc(CC[C@H]3CCCCN3)c2)c(C)n1 | > 10 |
| 1.82 | 5.62 | 3.24 | 4.57 | O=S(=O)(Nc1cccc2cccnc12)c1cccs1 | 10.7 |
| 1.78 | > 10 | 8.13 | > 10 | COc1ccc(Cl)cc1C(=O)Nc1cc(C2CC2)nn1-c1nc(C)cc(=O)[nH]1 | > 10 |
| 1.78 | 2.63 | 1.07 | 10.2 | CNc1nc(NCc2ccccc2)nc2ccccc12 | > 10 |
| 1.7 | 4.37 | 4.07 | 2.75 | Cc1ccc(S(=O)(=O)c2c(NS(=O)(=O)c3ccc(F)cc3)n(CCc3ccccc3)c3nc4ccccc4nc23)cc1 | > 10 |
| 1.66 | 6.31 | 3.02 | 2.88 | COc1ccc(-c2c(C(F)(F)F)n[nH]c2-c2ccc(OCc3ccccc3F)cc2O)cc1 | > 10 |
| 1.58 | 5.13 | 2.75 | 3.09 | Oc1ccc2ncccc2c1[C@@H](Nc1ccccn1)c1cccc(Br)c1 | > 10 |
| 1.51 | > 10 | > 10 | 0.501 | Cn1c(N)c(S(=O)(=O)N2CCN(c3ccccc3Cl)CC2)c(=O)n(C)c1=O | > 10 |
| 1.51 | 2.45 | 1.38 | 3.98 | CN(C)CC(O)COc1ccc(S(=O)(=O)c2ccc(OCC(O)CN(C)C)c(Cl)c2)cc1Cl (stereo not given) | > 10 |
| 1.51 | 2.57 | 2.24 | 2.45 | CN1CCC(NCC[C@@H](Cc2ccccc2Cl)c2ccc(Cl)cc2)CC1 | > 10 |
| 1.51 | 2.04 | 1.78 | 5.01 | Cc1cc(N2C[C@H]3CC[C@@H](C2)[C@H]3N(C)C)nc(Nc2cccc(O)c2)n1 | > 10 |
| 1.51 | 2.04 | 1.55 | 2.95 | CC(=O)c1cc(-c2cc(O)cc(CC[C@H]3CCCCN3)c2)ccc1O | > 10 |
| 1.2 | 1.74 | 2.63 | 2.45 | Oc1ccc2cc(CN3CCC[C@H](CN4CCCC4)C3)ccc2c1 | > 10 |
| 0.661 | 0.891 | > 10 | > 10 | COC[C@H](NCCc1cc(F)cc2c1OCOC2)C1CC1 | > 10 |
| 0.603 | 1.29 | 1.12 | 1.2 | CCN(CC)CC(O)COc1c(Br)cc(C(C)(C)c2cc(Br)c(OCC(O)CN(CC)CC)c(Br)c2)cc1Br (stereo not given) | 5.75 |
| 0.501 | 0.269 | 0.269 | 2.95 | Cc1cc(-c2cc(O)cc(CC[C@H]3CCCCN3)c2)ccn1 | > 10 |
| 0.479 | 0.813 | > 10 | > 10 | COc1nc(-c2cccc(C(=O)N3C[C@@H]4CC[C@H](C3)C(=O)N4)c2)ncc1F | > 10 |
| 0.263 | 2.95 | 2.95 | 1.15 | COc1cc(C(=O)Nc2ccc3sc(NC(=O)c4cc(OC)c(OC)c(OC)c4)nc3n2)cc(OC)c1OC | > 10 |
